Values quoted from earlier work in patent publication US4894235A, “Nifedipine-containing form of administration and method for its production” (Dr. Rentschler, Arzneimmittel GmbH & Co., priority 1984, dated 1990).

Legend:
[1] = Ramsch, Selecta 10, p. 860, 1983
[2] = influence of light

For COC(=O)C1=C(C)NC(C)=C(C(=O)OC)C1c1ccccc1[N+](=O)[O-] [Nifedipine, 1,4-dihydro-2,6-dimethyl-4-(2-nitrophenyl)-3,5-pyridine-dicarboxylic acid-dimethylester], the “lower limit for blood plasma levels” value [1] is listed as 10 to 15 nanograms per milliliter and the photo-sensitivity [2] is listed as “very photo-sensitive”.
